Results taken from patent US4278658A, “Deodorant composition” (priority 1978, dated 1981).

Experiments:
lipoxidase (ECl.12.1.13) = biological target: T1, lipoxidase (ECl.12.1.13) (Glycine max, UniProt P08170); experiment: Lipoxidase test: inhibition of oxidation of linoleic acid by lipoxidase; type: biochemical; set-up: inhibition: concentration or dose not given beside the values; details: for inhibition / inhibition at 0.5 % strength: read-out: LIC (lipoxidase inhibiting capacity)
T1 sequence (P08170 1-839): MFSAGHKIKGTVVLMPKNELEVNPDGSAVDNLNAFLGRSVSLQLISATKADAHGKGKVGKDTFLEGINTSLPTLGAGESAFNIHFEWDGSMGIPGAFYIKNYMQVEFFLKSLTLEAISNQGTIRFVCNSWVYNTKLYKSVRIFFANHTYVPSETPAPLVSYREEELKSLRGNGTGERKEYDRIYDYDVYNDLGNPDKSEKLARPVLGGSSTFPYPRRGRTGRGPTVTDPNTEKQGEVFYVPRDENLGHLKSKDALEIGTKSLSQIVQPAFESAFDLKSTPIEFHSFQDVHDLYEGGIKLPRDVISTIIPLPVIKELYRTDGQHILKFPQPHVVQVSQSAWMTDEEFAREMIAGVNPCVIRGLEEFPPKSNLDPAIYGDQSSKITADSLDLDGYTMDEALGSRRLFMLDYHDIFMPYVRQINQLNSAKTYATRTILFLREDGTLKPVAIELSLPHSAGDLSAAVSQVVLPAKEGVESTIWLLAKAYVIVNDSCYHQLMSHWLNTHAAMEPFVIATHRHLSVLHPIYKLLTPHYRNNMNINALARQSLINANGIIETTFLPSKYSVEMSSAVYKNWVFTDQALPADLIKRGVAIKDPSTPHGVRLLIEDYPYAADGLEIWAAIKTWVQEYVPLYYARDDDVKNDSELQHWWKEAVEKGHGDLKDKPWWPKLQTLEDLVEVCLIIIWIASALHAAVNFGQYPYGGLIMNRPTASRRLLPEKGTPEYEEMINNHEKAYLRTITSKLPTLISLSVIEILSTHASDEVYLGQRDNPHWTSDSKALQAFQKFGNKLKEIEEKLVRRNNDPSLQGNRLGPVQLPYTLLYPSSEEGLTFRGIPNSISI

[1] = Morpholine test: depression of the partial vapour pressure of morpholine beyond Raoult's Law; details: morpholine 0.25 g + material 1 g, 37° C., 30 minutes, headspace GC
[2] = % inhibition = 100 (S1-S2)/S1, 0.5% by weight solution of material in ethanol in test substrate, borate buffer pH 9.0, 234 nm

## CC1COCc2cc3c(cc21)C(C)(C)C(C)C3(C)C (stereo not drawn) [1,3,4,6,7,8-Hexahydro-4,6,6,7,8,8-hexamethyl cyclopenta-α-2-benzopyran]
Lipoxidase (ECl.12.1.13); pH 9
  inhibition: 100%

## CCCCCCCC1CCCC1=O (stereo not drawn) [2-n-Heptylcyclopentanone]
Lipoxidase (ECl.12.1.13); pH 9
  inhibition: 56%
[1]
  RVR (Raoult variance ratio): 1.05

## CC1(C)CCCC2(C)C1CCC1(C)OCCC12 (stereo not drawn) [3a-Methyl-dodecahydro-6,6,9a-trimethylnaphtho(2,1-b)furan]
Lipoxidase (ECl.12.1.13); pH 9
  inhibition: 58%
[1]
  RVR (Raoult variance ratio): 1.30

## O=C(OCc1ccccc1)c1ccccc1O [Benzyl salicylate]
Lipoxidase (ECl.12.1.13); pH 9
  inhibition at 0.5 % strength: 0%
[1]
  RVR (Raoult variance ratio): 1.58

## Cc1ccc(C(C)C)cc1O [Carvacrol]
Lipoxidase (ECl.12.1.13); pH 9
  inhibition at 0.5 % strength: 32%
[1]
  RVR (Raoult variance ratio): 1.43

## O=c1ccc2ccccc2o1 [Coumarin]
Lipoxidase (ECl.12.1.13); pH 9
  inhibition: 58%
[1]
  RVR (Raoult variance ratio): 1.22

## CCOC(=O)c1ccccc1C(=O)OCC [Diethyl phthalate]
Lipoxidase (ECl.12.1.13); pH 9
  inhibition at 0.5 % strength: 79%
[1]
  RVR (Raoult variance ratio): 1.20

## CCOc1cc(C=O)ccc1O [Ethyl vanillin]
Lipoxidase (ECl.12.1.13); pH 9
  inhibition at 0.5 % strength: 100%
[1]
  RVR (Raoult variance ratio): 1.43

## CCCCCCC(CCOC(C)=O)OC(C)=O (stereo not drawn) [Nonanediol-1,3-diacetate]
Lipoxidase (ECl.12.1.13); pH 9
  inhibition: 33%
[1]
  RVR (Raoult variance ratio): 1.17

## CCCCCC1CCC(=O)O1 (stereo not drawn) [Nonanolide-1:4]
Lipoxidase (ECl.12.1.13); pH 9
  inhibition: 92%
[1]
  RVR (Raoult variance ratio): 0.87

## OCCc1ccccc1 [Phenylethyl alcohol]
Lipoxidase (ECl.12.1.13); pH 9
  inhibition: 22%
[1]
  RVR (Raoult variance ratio): 1.24

## CC(C)CCOC(=O)c1ccccc1O [iso-Amyl salicylate]
Lipoxidase (ECl.12.1.13); pH 9
  inhibition: 95%
[1]
  RVR (Raoult variance ratio): 1.24

## C/C=C\c1ccc(O)c(OC)c1 [iso-Eugenol]
Lipoxidase (ECl.12.1.13); pH 9
  inhibition at 0.5 % strength: 100%
[1]
  RVR (Raoult variance ratio): 1.48

## CC(=O)OC1CCCCC1C(C)(C)C (stereo not drawn) [o-t-Butylcyclohexyl acetate]
Lipoxidase (ECl.12.1.13); pH 9
  inhibition: 52%
[1]
  RVR (Raoult variance ratio): 1.08

## CCC(C)(C)C1CCC(=O)CC1 [p-t-Amyl cyclohexanone]
Lipoxidase (ECl.12.1.13); pH 9
  inhibition: 50%
[1]
  RVR (Raoult variance ratio): 1.10

## CC(C=O)Cc1ccc(C(C)(C)C)cc1 (stereo not drawn) [p-t-Butyl-α-methyl hydrocinnamic aldehyde]
Lipoxidase (ECl.12.1.13); pH 9
  inhibition: 74%

## CC(=O)OC1CCC(C(C)(C)C)CC1 (stereo not drawn) [p-t-Butylcyclohexyl acetate]
Lipoxidase (ECl.12.1.13); pH 9
  inhibition: 54%
[1]
  RVR (Raoult variance ratio): 0.98

## CC(=O)c1ccc2ccccc2c1 [β-Methyl naphthyl ketone]
Lipoxidase (ECl.12.1.13); pH 9
  inhibition at 0.5 % strength: 100%
[1]
  RVR (Raoult variance ratio): 0.96

## Dimyrcetol
Lipoxidase (ECl.12.1.13); [2]
  LIC (lipoxidase inhibiting capacity): 16%
[1]
  RVR (Raoult variance ratio): 1.22

## Tetrahydromuguol
Lipoxidase (ECl.12.1.13); pH 9
  LIC (lipoxidase inhibiting capacity): 24%
[1]
  RVR (Raoult variance ratio): 1.23

## i-Nonyl acetate
Lipoxidase (ECl.12.1.13); [2]
  LIC (lipoxidase inhibiting capacity): 50%
[1]
  RVR (Raoult variance ratio): 0.83

## i-Nonyl formate
Lipoxidase (ECl.12.1.13); pH 9
  LIC (lipoxidase inhibiting capacity): 19%
[1]
  RVR (Raoult variance ratio): 1.49
